The results in this text go back to ChEMBL document CHEMBL3217419, “Blockage of collagen binding to integrin 21: structureactivity relationship of proteinprotein interaction inhibitors” (Medchemcomm, 2011).

The test system of data set [1] is CHO. As to the kind of experiment: Cytotoxicity against CHO cells assessed as release of lactate dehydrogenase by resazurin assay. The settings on record: chinese hamster. It is filed as cell-based, Cricetulus griseus.
For the next data set, the target named is T1, Integrin alpha-1 (Homo sapiens, UniProt P56199).
T1 sequence (P56199 whole entry): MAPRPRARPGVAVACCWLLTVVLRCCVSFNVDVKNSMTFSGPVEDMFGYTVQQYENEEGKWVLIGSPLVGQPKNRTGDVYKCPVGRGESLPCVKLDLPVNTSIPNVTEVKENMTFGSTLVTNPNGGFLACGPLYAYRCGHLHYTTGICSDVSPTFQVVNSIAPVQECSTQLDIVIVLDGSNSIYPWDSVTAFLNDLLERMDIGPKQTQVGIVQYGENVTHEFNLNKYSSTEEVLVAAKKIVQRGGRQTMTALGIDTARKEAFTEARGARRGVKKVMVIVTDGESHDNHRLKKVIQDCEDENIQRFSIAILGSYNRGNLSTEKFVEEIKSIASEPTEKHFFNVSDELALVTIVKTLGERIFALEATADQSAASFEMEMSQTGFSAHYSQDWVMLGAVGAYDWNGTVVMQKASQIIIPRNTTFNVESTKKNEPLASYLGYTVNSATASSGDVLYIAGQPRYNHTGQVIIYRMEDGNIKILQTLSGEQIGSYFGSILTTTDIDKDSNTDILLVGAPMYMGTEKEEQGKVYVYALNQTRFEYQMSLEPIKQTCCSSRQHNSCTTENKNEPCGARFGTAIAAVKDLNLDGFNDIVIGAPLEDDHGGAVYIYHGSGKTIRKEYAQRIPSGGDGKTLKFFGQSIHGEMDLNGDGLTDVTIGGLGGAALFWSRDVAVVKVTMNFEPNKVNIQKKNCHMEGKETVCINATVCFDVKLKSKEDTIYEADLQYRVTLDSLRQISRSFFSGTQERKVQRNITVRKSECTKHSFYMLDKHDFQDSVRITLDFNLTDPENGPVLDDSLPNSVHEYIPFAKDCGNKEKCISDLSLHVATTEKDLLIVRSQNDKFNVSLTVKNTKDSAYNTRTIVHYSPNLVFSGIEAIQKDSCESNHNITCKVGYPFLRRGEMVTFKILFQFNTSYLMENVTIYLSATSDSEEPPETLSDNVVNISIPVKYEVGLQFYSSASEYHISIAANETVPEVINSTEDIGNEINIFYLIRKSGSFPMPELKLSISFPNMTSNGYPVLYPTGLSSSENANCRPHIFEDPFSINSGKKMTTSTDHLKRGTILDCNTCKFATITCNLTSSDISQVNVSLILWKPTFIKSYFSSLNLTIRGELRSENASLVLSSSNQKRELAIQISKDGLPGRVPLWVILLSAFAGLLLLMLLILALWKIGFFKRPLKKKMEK
As to the kind of experiment: Inhibition of human alpha1 integrin expressed in CHO cells binding to collagen I after 2 hrs by cell-adhesion-based WST-1 assay.

For data set [2], the target named is Integrin alpha-1 (Homo sapiens) (UniProt P56199). The data set can be described thus: Inhibition of human alpha1 integrin expressed in CHO cells binding to collagen I at 50 uM after 2 hrs by cell-adhesion-based WST-1 assay. A general note: Tetrazolium assays rely on reduction of a dye to a coloured formazan, in cell work by metabolically active cells.
For data set [3] the target is unchanged. The data set can be described thus: Inhibition of human alpha1 integrin expressed in CHO cells binding to collagen I at 100 uM after 2 hrs by cell-adhesion-based WST-1 assay relative to control.
Data set [4] deals with CHO. As to the kind of experiment: Selectivity ratio of EC50 for human alpha2 integrin expressed in CHO cells binding to collagen IV to EC50 for human alpha1 integrin expressed in CHO cells binding to collagen I. The format is cell-based.
The next data set concerns the target Integrin alpha2/beta1 (Homo sapiens, UniProt P05556+P17301). As to the kind of experiment: Binding affinity to alpha2beta1 integrin (unknown origin). It is filed as protein-complex assay.
The nature of data set [5]: Lipophilicity, log P of the compound. The format is physicochemical. The settings on record: octanol/water.

Structures are written as SMILES.

Chain of Integrin alpha2/beta1 (P05556 whole entry): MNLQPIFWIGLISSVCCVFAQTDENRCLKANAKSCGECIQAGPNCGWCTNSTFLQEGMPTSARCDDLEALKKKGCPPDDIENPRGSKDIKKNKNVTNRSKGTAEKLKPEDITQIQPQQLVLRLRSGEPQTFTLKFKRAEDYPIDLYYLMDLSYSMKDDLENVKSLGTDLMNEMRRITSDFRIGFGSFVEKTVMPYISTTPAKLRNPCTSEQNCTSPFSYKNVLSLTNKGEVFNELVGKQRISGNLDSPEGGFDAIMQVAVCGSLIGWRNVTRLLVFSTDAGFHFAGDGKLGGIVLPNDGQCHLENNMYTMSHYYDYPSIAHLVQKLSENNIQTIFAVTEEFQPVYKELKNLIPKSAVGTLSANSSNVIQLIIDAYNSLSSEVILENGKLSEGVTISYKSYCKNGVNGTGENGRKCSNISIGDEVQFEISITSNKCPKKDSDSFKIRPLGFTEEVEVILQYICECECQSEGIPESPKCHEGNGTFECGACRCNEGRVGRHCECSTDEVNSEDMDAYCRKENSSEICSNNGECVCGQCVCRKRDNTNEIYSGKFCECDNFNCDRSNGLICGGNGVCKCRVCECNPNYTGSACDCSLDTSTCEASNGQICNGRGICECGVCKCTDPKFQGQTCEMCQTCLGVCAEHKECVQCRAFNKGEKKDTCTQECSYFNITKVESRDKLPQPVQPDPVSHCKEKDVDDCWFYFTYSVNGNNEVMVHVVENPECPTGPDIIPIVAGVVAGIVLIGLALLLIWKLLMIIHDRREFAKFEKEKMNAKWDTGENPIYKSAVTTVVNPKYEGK
Chain of Integrin alpha2/beta1 (P17301 whole entry): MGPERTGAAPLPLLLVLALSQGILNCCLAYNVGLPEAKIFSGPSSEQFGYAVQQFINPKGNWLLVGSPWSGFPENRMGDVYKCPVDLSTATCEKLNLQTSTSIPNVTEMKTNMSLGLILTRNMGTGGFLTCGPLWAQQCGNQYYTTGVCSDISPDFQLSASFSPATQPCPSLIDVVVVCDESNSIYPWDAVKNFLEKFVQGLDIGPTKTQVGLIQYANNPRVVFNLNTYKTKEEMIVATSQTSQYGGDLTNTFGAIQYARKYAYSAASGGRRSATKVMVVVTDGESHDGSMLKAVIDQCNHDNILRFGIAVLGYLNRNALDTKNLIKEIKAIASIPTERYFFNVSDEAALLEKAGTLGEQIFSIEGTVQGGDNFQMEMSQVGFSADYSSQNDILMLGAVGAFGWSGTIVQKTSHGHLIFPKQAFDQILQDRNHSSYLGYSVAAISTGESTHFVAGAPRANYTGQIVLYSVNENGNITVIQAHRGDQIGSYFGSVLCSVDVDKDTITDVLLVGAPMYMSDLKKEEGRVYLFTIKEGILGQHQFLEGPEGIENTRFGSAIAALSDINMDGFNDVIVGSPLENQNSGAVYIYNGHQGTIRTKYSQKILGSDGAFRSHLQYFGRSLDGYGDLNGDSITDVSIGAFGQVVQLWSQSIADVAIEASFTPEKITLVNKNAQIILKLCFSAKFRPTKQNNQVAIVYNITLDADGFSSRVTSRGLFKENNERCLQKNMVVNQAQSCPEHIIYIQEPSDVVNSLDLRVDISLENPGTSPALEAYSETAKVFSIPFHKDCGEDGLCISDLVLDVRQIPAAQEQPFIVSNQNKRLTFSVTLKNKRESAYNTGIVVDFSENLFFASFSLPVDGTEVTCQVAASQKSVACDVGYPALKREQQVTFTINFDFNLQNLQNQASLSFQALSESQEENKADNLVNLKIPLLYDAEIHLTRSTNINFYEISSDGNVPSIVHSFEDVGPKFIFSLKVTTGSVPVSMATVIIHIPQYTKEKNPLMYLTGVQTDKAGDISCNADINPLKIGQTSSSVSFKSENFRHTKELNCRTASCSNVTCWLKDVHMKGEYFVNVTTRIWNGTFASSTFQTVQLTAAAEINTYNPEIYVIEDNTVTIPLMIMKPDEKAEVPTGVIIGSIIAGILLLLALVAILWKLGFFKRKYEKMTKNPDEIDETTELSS

In the case of `O=C(c1ccccc1)c1ccc(NS(=O)(=O)c2ccccc2)cc1`, the Activity entry in the data set on CHO [1] is listed as “<= 200 uM”. Besides, on Integrin alpha-1, the EC50 entry is on record as “Not Active”. In data set [2], this molecule gave an inhibition of 0%.

On to `CN(c1ccc(C(=O)c2ccccc2)cc1)S(=O)(=O)c1ccc(Cl)cc1Cl`, for which the EC50 result at Integrin alpha-1 is “Not Active”. In addition, the inhibition in data set [2] turned out to be 0%.

Turning to `CC(=O)c1cccc(NS(=O)(=O)c2ccc(Cl)cc2Cl)c1`, at Integrin alpha-1, the EC50 entry was “Not Active”. Further, in data set [2], the inhibition was 0%.

As to `O=C(c1ccccc1)c1cccc(NS(=O)(=O)c2ccccc2)c1`, in the data set on CHO [1], the Activity result is “<= 200 uM”. Further, the EC50 result on Integrin alpha-1 is reported as “Not Active”. The molecule further had an inhibition in data set [2] of 4%.

In data set [3], `O=C(c1ccccc1)c1cccc(NS(=O)(=O)c2ccc(Cl)cc2Cl)c1` displayed an Imax of 69%. In addition, the Activity entry in the data set on CHO [1] is listed as “<= 200 uM”. This molecule also showed an inhibition in data set [2] of 69%. The Ratio EC50 with CHO [4] came to 3.

As to `O=C(c1ccccc1)c1ccc(NS(=O)(=O)c2cccc(-c3ccc(F)cc3)c2)cc1`, the concentration for a half-maximal effect (EC50) on Integrin alpha2/beta1 was 2000 nM.

In turn, `O=C1c2ccccc2-c2ccc(NS(=O)(=O)c3ccc(Cl)cc3Cl)cc21` had an Imax in data set [3] of 93%. Besides, the Activity entry with CHO [1] is reported as “<= 200 uM”. The same molecule registered an inhibition in data set [2] of 93%. Further, the Ratio EC50 with CHO [4] turned out to be 1.2.

As for `O=C(c1ccccc1)c1cccc(NS(=O)(=O)c2ccc(Br)cc2)c1`, in data set [3], the Imax was found to be 96%. Besides, the Activity result with CHO [1] is recorded as “<= 200 uM”. Moreover, in data set [2], the inhibition was 92%. Besides, the Ratio EC50 in the data set with CHO [4] was found to be 2.2.

Consider `O=C(c1ccccc1)c1ccc(OS(=O)(=O)c2ccc(Cl)cc2Cl)cc1`, for which, at Integrin alpha-1, the EC50 entry is listed as “Not Active”. Also, in data set [2], the inhibition stood at 0%.

On to `Cc1ccc(S(=O)(=O)Nc2ccc(C(=O)c3ccccc3)cc2)cc1`, for which the Imax in data set [3] was 35%. Besides, the Activity result with CHO [1] was “<= 200 uM”. Moreover, on Integrin alpha-1, the EC50 entry was “Not Active”. For the same molecule, the inhibition in data set [2] stood at 35%.

In the case of `O=C(c1ccccc1)c1ccc(NS(=O)(=O)c2ccc(Br)cc2)cc1`, the Imax in data set [3] stood at 34%. For the same molecule, in the data set on CHO [1], the Activity entry was “<= 200 uM”. The EC50 entry at Integrin alpha-1 is on record as “Not Active”. Moreover, the inhibition in data set [2] stood at 34%.

On to `O=C(c1ccccc1)c1ccc(NS(=O)(=O)c2ccc(I)cc2)cc1`, for which, in data set [3], the Imax was 85%. For the same molecule, in the data set on CHO [1], the Activity result is “<= 200 uM”. The molecule further showed an inhibition in data set [2] of 85%. Besides, in the data set with CHO [4], the Ratio EC50 was determined as 1.3.

As to `O=S(=O)(Nc1ccc2c(c1)Cc1ccccc1-2)c1ccc(Cl)cc1Cl`, the Imax in data set [3] was found to be 87%. The Activity result in the data set with CHO [1] was “<= 200 uM”. The same molecule returned a logP in data set [5] of 4.1. The molecule further registered an inhibition in data set [2] of 70%. Further, in the data set on CHO [4], the Ratio EC50 is 0.8.

`Cc1ccc(S(=O)(=O)Nc2cccc(C(=O)c3ccccc3)c2)cc1`: in data set [3], the Imax was 34%. In addition, the Activity result with CHO [1] is listed as “<= 200 uM”. In addition, the EC50 result on Integrin alpha-1 is “Not Active”. The inhibition in data set [2] came to 34%.

`O=C(c1ccccc1)c1cccc(NS(=O)(=O)c2ccc(I)cc2)c1`: the Imax in data set [3] turned out to be 72%. The Activity entry in the data set on CHO [1] is recorded as “<= 200 uM”. Moreover, the inhibition in data set [2] was 72%.

For the molecule `O=C(c1ccccc1)c1ccc(OS(=O)(=O)c2cc(Cl)cc(Cl)c2O)cc1`, the Imax in data set [3] was determined as 95%. Further, the Activity entry with CHO [1] is listed as “<= 100 uM”. Further, in data set [5], the logP amounted to 3.1. Besides, the inhibition in data set [2] came to 86%. The Ratio EC50 in the data set with CHO [4] was 2.8.

For the molecule `O=C(c1ccccc1)c1ccc(NS(=O)(=O)c2ccc(Cl)cc2Cl)cc1`, in data set [3], the Imax came out at 82%. Moreover, the Activity result in the data set with CHO [1] is “<= 20 uM”. This molecule also came in with a logP in data set [5] of 3.5. The same molecule gave an inhibition in data set [2] of 82%. Besides, the Ratio EC50 with CHO [4] amounted to 1.5.

As for `CN(c1ccc2c(c1)C(=O)c1ccccc1-2)S(=O)(=O)c1ccc(Cl)cc1Cl`, the EC50 entry at Integrin alpha-1 is given as “Not Active”. Further, in data set [2], the inhibition amounted to 0%.

Consider `CN(c1cccc(C(=O)c2ccccc2)c1)S(=O)(=O)c1ccc(Cl)cc1Cl`, for which the EC50 entry at Integrin alpha-1 was “Not Active”. For the same molecule, in data set [2], the inhibition was found to be 8%.

Broadly, the EC50 is the midpoint of the concentration-response curve. A high value points to a less potent agent. By inhibition is commonly meant the relative decrease from the control value, in per cent. Higher therefore signals a strong effect. Usually logP stands for the decadic logarithm of the partition coefficient of the neutral form, usually between octanol and water. Low values mean lower lipophilicity, high ones higher lipophilicity.
